Experimental data: patent publication EP0683227A1, “Human retinoic acid receptor and genes encoding for it” (INSTITUT NATIONAL DE LA SANTE ET DE LA RECHERCHE MEDICALE …, priority 1989, dated 1991)

Legend:
F9 teratocarcinoma cells = test: Northern blot of mRAR RNAs in F9 cells after RA treatment (densitometric scanning); type: cell-based, mouse
[1] = test system: mRAR-γ (mouse retinoic acid receptor γ, expression vector mRAR-γO); test: RA-dependent transcriptional transactivation of (TRE₃)₃-tk-CAT reporter in co-transfected HeLa cells (CAT activity); type: cell-based; details: same concentrations as RA; data not shown
From the text: (§1) (mRAR-αO, mRAR-βO and mRAR-γO, respectively) and co-transfected into HeLa cells with a reporter plasmid, (TRE₃)₃-tk-CAT, containing a RA responsive element. […] In Fig. 3 HeLa cells were co-transfected as described in example 2 [Petkovich, M., Brand, N. J., Krust, A. & Chambon, P. Nature 330, 444-450 (1987); Brand, N., Petkovich, M., Krust, A., Chambon, P., de The, H., Marchio, A., Tiollais, P. & Dejean, A. Nature 332, 850-853 (1988)] with pSG5-based expression vectors [Green, S., Issemann, I. & Scheer, E. Nucleic Acids Res. 16, 369 (1988)] containing the entire cDNA of either mRAR-α (mRAR-αO), β (mRAR-βO) or γ (mRAR-γO), and a reporter plasmid, (TRE₃)₃-tk-CAT, carrying a synthetic RA responsive element (RARE). 24 hours after transfection, cells were fed with media containing increasing concentrations of RA as indicated (from 0 to 1x10⁻⁶ M, lanes 1-8, respectively) and harvested 48 hours post-transfection for determination of CAT activity. […] No obvious difference was observed between the dose responsiveness of mRAR-α and β, in contrast with previous results obtained with human chimeric constructs in which the C region of hRAR-α and β was replaced by the corresponding region of the human oestrogen receptor [Brand, N., Petkovich, M., Krust, A., Chambon, P., de The, H., Marchio, A., Tiollais, P. & Dejean, A. Nature 332, 850-853 (1988)]. The reason for these differences is unknown, but may be related to the use of a different and less sensitive responsive element in the present study. Direct determination of the true affinity of RAR-α, β and γ for RA must await direct binding measurements in vitro in the absence of the cellular retinoic acid binding protein.
(§2) HeLa cells (∼ 10⁶ per dish) were co-transfected with 0.5 µg of a given mRAR expression vector, 2 µg of reporter plasmid and 2 µg of pCH110 (Pharmacia, a β-galactosidase expression vector used as an internal control to normalize for variations in transfection efficiency). The total amount of transfected DNA was adjusted to 20µg by addition of carrier DNA (BSM13+). […]

[2] = test system: mRAR-α (mouse retinoic acid receptor α, expression vector mRAR-αO); test: as above; type: cell-based; details: same concentrations as RA; data not shown
From the text: as §1, §2

[3] = test system: mRAR-β (mouse retinoic acid receptor β, expression vector mRAR-βO); test: as above; type: cell-based; details: same concentrations as RA; data not shown
From the text: as §1, §2

[4] = test system: hRAR-γ (human retinoic acid receptor γ, hRAR-γD cDNA in pSG5 = hRAR-γ0); test: RA-dependent transcriptional activation of (TRE₃)₃-tk-CAT reporter by hRAR-γ0 in HeLa cells (CAT activity); type: cell-based; details: data not shown
Experimental: To test the ability of hRAR-γ to activate transcription, hRAR-γD cDNA was subcloned into the eukaryotic expression vector pSG5 [Green, S., Issemann, I. & Scheer, E. Nucleic Acids Res. 16, 369 (1988)] as described in Example 6, to give hRAR-γ0 which was co-transfected into HeLa cells along with a reporter plasmid, (TRE₃)₃-tk-CAT, which contains a synthetic RA responsive element as described in Example 6. The transfected cells were exposed (24 hour post transfection) to increasing concentrations of RA, and RA-induced activation of transcription was evaluated 48 hours after transfection by determining the CAT activity expressed from the reporter gene.
The entire 1.5 kb insert from the hRAR-γD clone was inserted into the EcoRI site of the eukaryotic expression vector pSG5 [Green, S., Issemann, I. & Scheer, E. Nucleic Acids Res. 16, 369 (1988)], to yield hRAR-γ0. 500 ng of hRAR-γ0 was transfected into HeLa cells along with 2 µg of the (TRE₃)₃-tk-CAT reporter plasmid, 2 µg of a β-galactosidase expressing plasmid pCH110 (to normalize for variations in transfection efficiency) and 15 µg of carrier DNA (BSM13+) as described [Petkovich, M., Brand, N. J., Krust, A. & Chambon, P. Nature 330, 444-450 (1987)]. 24 hours following transfection, the cells were exposed for an additional 24 hour to RA for retinol with concentrations ranging from 10⁻¹¹M to 10⁻⁶. […]

CC1=C(/C=C/C(C)=C/C=C/C(C)=C/C(=O)O)C(C)(C)CCC1 [RA, retinoic acid]
fold induction at 0.33 µM (F9 teratocarcinoma cells; Mus musculus, F9, read-out: induction of mRAR-β RNA): ≥ 30
decrease of mRAR-γ RNA (F9 teratocarcinoma cells; RA 3.3x10⁻⁷M, 24 and 48 hours): 2 fold

CC1=C(/C=C/C(C)=C/C=C/C(C)=C/CO)C(C)(C)CCC1 [retinol]
transactivation efficiency compared with RA [1]: much less efficient
transactivation efficiency compared with RA [2]: much less efficient
transactivation efficiency compared with RA [3]: much less efficient
potency as activator compared with all-trans or 13-cis retinoic acid [4]: much less potent activator
